What all share (type): cell-based
For assay [1], the system named is MDA-N and MDA-MB-435 breast cancer cell lines. To be noted: at all concentrations tested. On the procedure:
(§1) Conjugates 1 and 2 were sent to the United States National Cancer Institute (NCI) for screening in the NCI's anticancer screening program. The conjugates were provided in ethanol (approximately 40 mg analog/2 ml ethanol). […] Instructions were provided to store at 4° C. and to open the vials only when ready for immediate experimental use. Instructions also were provided to use the ethanol solutions containing the conjugates directly or to dissolve the analogs further in DMSO (dimethylsulfoxide) at appropriate concentrations, with vortexing if necessary for adequate dispersal.
(§2) The activities of conjugates 1 and 2 were tested against 57 cancer cell lines. […] To understand the data, reference is made to the guides provided by the NCI, excerpted as follows:
(§3) The Calculated Measurement of Effect: Percentage Growth (PG)
(§4) The measured effect of the compound on a cell line is currently calculated according to one or the other of the following two expressions: If (Mean ODtest−Mean ODtzero)≧0, then PG=100×(Mean ODtest−Mean ODtzero)/(Mean ODctrl−Mean Odtzero) If (Mean ODtest−Mean ODtzero)<0, then PG=100×(Mean ODtest−Mean Odtzero)/Mean Odtzero Where: • Mean ODtzero=The average of optical density measurements of SRB-derived color just before exposure of cells to the test compound. • Mean ODtest=The average of optical density measurements of SRB-derived color after 48 hours exposure of cells to the test compound. • Mean ODctrl=The average of optical density measurements of SRB-derived color after 48 hours with no exposure of cells to the test compound. • Experimental data was collected against each cell line . . . Each concentration is expressed as the log10 (molar or μg/ml) . . . The response parameters GI50, TGI, and LC50 are interpolated values representing the concentrations at which the PG is +50, 0, and −50, respectively. Sometimes these response parameters cannot be obtained by interpolation. If, for instance, all of the PGs in a given row exceed +50, then none of the three parameters can be obtained by interpolation. In such a case, the value given for each response parameter is the highest concentration tested . . . This practice is extended similarly to the other possible situations where a response parameter cannot be obtained by interpolation.
(§5) Dose-Response Curves: • The dose-response curve page of the data package is created by plotting the PGs against the log10 of the corresponding concentration for every cell line. The cell line curves are grouped by subpanel. Horizontal lines are provided at the PG values of +50, 0, and −50. The concentrations corresponding to points where the curves cross these lines are the GI50, TGI and LC50, respectively.

The test system of a further assay is 57 cancer cell lines. To be noted: average over all cell lines; −10 used where Taxol was active at −10.0 (27 instances). On the procedure:
as §1, §2, §3, §4, §5

Another assay deals with CNSU251. On the procedure: as §1, §2, §3, §4, §5
In assay [2] the test system is leukemia cancer cell lines. To be noted: six leukemia lines for the conjugates, four for Taxol; FIGS. 1, 10 and 19. On the procedure:
as §1, §2, §3, §4, §5

In assay [3] the test system is non-small cell lung cancer lines H522 and H460. On the procedure: as §1, §2, §3, §4, §5
The next assay relates to CNS SF-539. Description: cells. To be noted: 48 hours exposure, SRB. On the procedure:
as §1, §2, §3
as §4, with “In such a case, the value given for each response parameter is the highest concentration tested . . . This practice is extended similarly to the other possible situations where a response parameter cannot be obtained by interpolation.” left out

The test system of another assay is CNSSF 268. The assay can be described thus: cells. To be noted: concentration at which PG is +50, 48 hours exposure, SRB. On the procedure: as §1, §2, §3
as §4, with “In such a case, the value given for each response parameter is the highest concentration tested . . . This practice is extended similarly to the other possible situations where a response parameter cannot be obtained by interpolation.” left out

For the compound `CC(=O)O[C@H]1C(=O)[C@@]2(C)[C@H]([C@H](OC(=O)c3ccccc3)[C@]3(O)C[C@H](OC(=O)[C@H](O)[C@@H](NC(=O)c4ccccc4)c4ccccc4)C(C)=C1C3(C)C)[C@]1(OC(C)=O)CO[C@@H]1C[C@@H]2O` [Taxol, paclitaxel], the “relative activity toward MDA-N versus MDA-MB-435” value in assay [1] is “equivalent in activity”. For the same compound, the “average GI50 across all cell lines tested” value with 57 cancer cell lines is −9.19 log10 (molar or μg/ml). Moreover, the “effectiveness at TGI against CNSU251 relative to other CNS cell lines” value in the assay on CNSU251 is given as “least effective”. Besides, the “effectiveness against leukemia cancer cell lines” value in assay [2] was “somewhat effective”. In addition, in assay [3], the “difference in effectiveness at TGI, H522 versus H460” value is recorded as “about 3 logs”. Further, the “relative effectiveness at TGI, H522 versus H460” value in assay [3] is reported as “more effective against non-small cell lung cancer line H522 than against H460”. The concentration for 50% growth inhibition (GI50) in the assay on CNS SF-539 (CNSSF-539, concentration at which PG is +50, CNS SF 539) was 30.2 nM; in the assay on CNSSF 268, less than 0.1 nM. Also, in the assay with CNS SF-539 (concentration at which PG is 0, CNS SF-539), the TGI is reported as −6.95 log10 (molar or μg/ml).

The record behind these values is patent US7199151B2 (priority 1996, dated 2007).
